Assay results reported in the SangsterLogP compilation.

Conditions: pH 2.0
Compound `CCN(CC)S(=O)(=O)c1ccc(C(=O)N2CCNC(=O)[C@H]2CC(=O)OC)cc1` has a logD of 1.14.

Same assay, conditions: pH 5.0
`Cc1ccccc1N[C@@H](c1ccccc1F)P(=O)(OC(C)C)OC(C)C` showed a logD of 5.63. Compound `N#CC1=C(N)C(C#N)(C#N)[C@@H](c2ccccc2Cl)[C@@H]2CSCC=C12` has a logD of 4.5. `C[C@@]1(c2ccc(Cl)cc2)NC(=S)N2[C@@H]1NC(=S)N2c1ccc(Cl)cc1` gave a logD of 4.94. For `O=C(OCCN1C(=O)c2ccccc2C1=O)[C@@H]1C[C@H](O)CN1S(=O)(=O)c1ccc(Cl)cc1`, the logD was 3.65. `C[C@@H](Oc1ccccc1)C(=O)Nc1ccc(OC(F)(F)F)cc1` gave a logD of 4.77. In the case of `CCCC1=C(C(=O)OCC)[C@H](c2ccc3c(c2)OCO3)NC(=O)N1`, the logD is reported as 3.59. With `C=C1NC(=S)N[C@H](c2ccc(-c3ccc(C(C)=O)cc3)o2)[C@H]1C(=O)OC(C)(C)C` the logD was 4.53. For `CC1(C)CC(=O)C2=C(C1)OC(N)=C(C#N)[C@H]2c1ccc(C(F)(F)F)cc1`, the logD was 4.55. `CCC[C@@H]1C(=O)C[C@H](C(C)C)C(C#N)(C#N)C1(C#N)C#N` gave a logD of 3.3. Work on `CCN(CC)C(=O)[C@@]12CC[C@@](C)(C(=O)O1)C2(C)C` yielded a logD of 2.66. Work on `COc1ccccc1[C@@H]1CC(=O)Nc2cc(C)c(C)cc21` yielded a logD of 4.17. Work on `O=C(c1cccc(COCC(F)(F)C(F)F)c1)N1CC[C@@H](C(F)(F)F)n2nccc21` yielded a logD of 4.27. In the case of `CC[C@H](C(=O)N1CCCN(C(=O)[C@@H](CC)c2ccccc2)CC1)c1ccccc1`, the logD is reported as 4.93. With `CC(C)(C)C(=O)Nc1ccc(NC(=O)C(C)(C)C)cc1` the logD was 2.79. For `O=C1[C@@H](c2cccc(Br)c2)N(CCC2=CCCCC2)C(=O)CN1C1CCCCC1`, the logD was 5.6. For `COc1ccc([C@H]2[C@H](C(=O)Nc3ccc(F)cc3F)c3cc(OC)c(OC)cc3C(=O)N2C)cc1OC`, the logD was 3.66. `Cc1onc(-c2c(F)cccc2Cl)c1C(=O)OCC(=O)N1[C@H](C)CCC[C@H]1C` gave a logD of 4.38. With `COc1ccc(Oc2c(C(F)(F)F)oc3cc(OC(=O)N4CCOCC4)ccc3c2=O)cc1` the logD was 4.63. `CC1=C(C)C[C@@H]2C(=O)N(c3cccc(Br)c3)C(=O)[C@H]2C1` gave a logD of 3.93. Work on `CC1CCN(S(=O)(=O)N2CCC(C(=O)N[C@@H](C)c3ccccc3)CC2)CC1` yielded a logD of 4.92. For `O=C(c1sc2cc(Cl)ccc2c1Cl)N1CCN(C(=S)NC[C@H]2CCCO2)CC1`, the logD was 4.83. Work on `COC(=O)c1ccc(N(C(=O)C(F)(F)F)[C@@H]2C=CS(=O)(=O)C2)cc1` yielded a logD of 2.05. `C[C@]12CC[C@@H]3C[C@@]1(C(=O)NCC(F)(F)F)OC[C@@]32C` gave a logD of 3.11. `COc1cc2c(cc1OC)[C@H](COc1ccc3c(C)cc(=O)oc3c1)N(C(=O)C1CCCCC1)CC2` gave a logD of 5.07. Compound `CCOC(=O)c1c(NC(=O)[C@@H]2C[C@H]3CC[C@@H]2C3)sc(C(=O)N(CC)CC)c1C` has a logD of 5.05. `CCCCN1C(=O)N(C)[C@@H]2[C@H]1N(C)C(=O)N2CCCC` gave a logD of 2.69. `O=C(CN1C(=O)c2ccccc2S1(=O)=O)Nc1ccc(S(=O)(=O)N2CCCCCC2)cc1` showed a logD of 4.73. With `C[C@@H](OC(=O)c1cccc(C(F)(F)F)c1)C(N)=O` the logD was 2.75. `O=C(/C=C/c1ccc2c(c1)OCO2)NCCCCNC(=O)/C=C/c1ccc2c(c1)OCO2` gave a logD of 4.59. For `COC(=O)c1cccc(NC(=O)c2ccc(C)cc2)c1`, the logD was 3.72. Work on `Cc1c(CN(C)C(=O)[C@@H](C)n2nc(C(F)F)c(Br)c2C)cnn1C` yielded a logD of 3.12. In the case of `CCN(CC)S(=O)(=O)c1ccc2nnn(OCC(=O)NC(c3ccccc3)c3ccccc3)c2c1`, the logD is reported as 4.49. In the case of `CN1C(=CC(=O)COC(=O)C(c2ccccc2)c2ccccc2)C(C)(C)c2ccccc21`, the logD is reported as 6.27. Compound `CC(C)[C@H]1O[C@H]2CCCC[C@H]2C2=CCCC[C@H]21` has a logD of 5.87. For `O=C1[C@H]2[C@@H](C(=O)N1c1ccccc1)C1(O[C@H]2c2ccccc2)C(=O)c2ccccc2C1=O`, the logD was 4.

Same assay, conditions: pH 6.5
`CC(C)(C)S(=O)(=O)/C(C#N)=C/Nc1ccc(OC(F)(F)F)cc1` showed a logD of 4.28. For `COc1cc(/C=C(\NC(=O)c2ccccc2)C(=O)Nc2cccc(CO)c2)ccc1OC(C)=O`, the logD was 4.04. With `C[C@@H]1CCCN(c2nc3c(c(=O)n(C)c(=O)n3C)n2CCSc2nc3ccccc3s2)C1` the logD was 5.05. Compound `COC(=O)c1ccc(C(=O)OC)c(NC(=O)CSc2ncnc3sc4c(c23)CC[C@@H](C)C4)c1` has a logD of 5.79. In the case of `C[C@H]1CCCC[C@@H]1NC(=O)COc1ncnc2ccccc12`, the logD is reported as 3.11. Work on `O=C([C@H]1CCCO1)N1CCN(C(=S)Nc2ccc(Oc3ccccc3)cc2)CC1` yielded a logD of 4.18. For `Cc1ccc2[nH]c3nc(N/N=C/C=C/c4ccco4)nnc3c2c1`, the logD was 2.18.

Same assay, conditions: pH 7.3
`O=C1C(=O)N(OCc2ccc(Br)cc2)[C@H]2CCCC[C@@H]2N1OCc1ccc(Br)cc1` gave a logD of 5.49. In the case of `O=C(c1cccc(S(=O)(=O)N2CCOCC2)c1)N1CCN(c2cccc(Cl)c2)CC1`, the logD is reported as 4.34.

Same assay, conditions: pH 8.0
Compound `CC(=O)N(c1ccccc1)c1nc(/C=C/C(=O)Nc2ccc3c(c2)OCO3)cs1` has a logD of 4.37.

Same assay, conditions: pH 9.2
`Cc1cc(C(=O)NCCc2c(C)[nH]c3ccccc23)ccc1[N+](=O)[O-]` gave a logD of 4.12.

Same assay, conditions: pH 10.0
For `COc1ccc([C@@H]2C(C(=O)OCCOC(C)C)=C(C)NC3=C2C(=O)C[C@H](c2cccs2)C3)cc1OC`, the logD was 4.45. In the case of `COc1cc([C@@H]2Nc3cc(C)c(C)cc3NC3=C2C(=O)CC(C)(C)C3)cc(OC)c1OC(C)=O`, the logD is reported as 4.21. Compound `CCSCCOC(=O)C1=C(C)NC2=C(C(=O)C[C@@H](c3cccs3)C2)[C@H]1c1ccc2c(c1)OCO2` has a logD of 5. `CC/N=C1\S/C(=C\c2cn(CC(=O)Nc3cccc(C)c3)c3ccccc23)C(=O)N1CC` gave a logD of 5.8. For `Cc1nn(C)cc1-c1cc(C(F)(F)F)n2nc(C(=O)N3C[C@@H](C)O[C@@H](C)C3)cc2n1`, the logD was 4.11. For `CCOC(=O)c1c(CC(C)C)csc1/N=C/c1c(C)nn(-c2ccccc2)c1O`, the logD was 5.16. `COc1ccc(/N=C/c2ccc(/C=N/c3ccc(OC)cc3)cc2)cc1` showed a logD of 5.24. `O=[N+]([O-])c1ccccc1/C=N/c1ccc(/N=C/c2ccccc2[N+](=O)[O-])cc1` gave a logD of 2.95. `CC(C)OC(=O)C1=C(CSc2nc3c(cc2C#N)CCCCC3)OC(N)=C(C#N)[C@@H]1c1ccncc1` showed a logD of 5.43. For `Cc1ccc(Cl)c(OCc2ccc(-c3nc4c5c[nH]nc5ncn4n3)o2)c1`, the logD was 4.4. With `CCSCCOC(=O)C1=C(C)NC2=C(C(=O)C[C@@H](c3cccs3)C2)[C@@H]1c1ccc(C(=O)OC)cc1` the logD was 5.24.

Same assay, conditions: pH 10.5
Compound `C=CCn1/c(=N/C(=O)c2cc(OC)c(OC)c(OC)c2)sc2cccc(OC)c21` has a logD of 5.14. In the case of `CCCc1[nH]nc2c1[C@H](c1ccsc1C)C(C#N)=C(N)O2`, the logD is reported as 3.83. With `OC[C@@H](O)Cn1c(SCCSc2nc3ccccc3n2C[C@H](O)CO)nc2ccccc21` the logD was 3.29. Compound `C[C@H](NC(=O)CSc1ncnc2c1cnn2-c1ccccc1)c1ccccc1` has a logD of 4.73. For `C[C@@H](c1nc2c3cnn(-c4ccccc4)c3ncn2n1)n1cc([N+](=O)[O-])cn1`, the logD was 3.73. In the case of `CC(=O)C1=C(C)NC(SCC(=O)c2ccc(Cl)cc2Cl)=C(C#N)[C@@H]1c1cccs1`, the logD is reported as 5.25. With `CCOC(=O)C1=C(C)N=c2s/c(=C\c3ccc(OC(C)=O)cc3)c(=O)n2C1c1cccs1` (centres undefined) the logD was 4.77. In the case of `Nc1nc(O/N=C/c2ccc([N+](=O)[O-])cc2)nc(N2CCOCC2)n1`, the logD is reported as 3.18. With `C=CCn1c(SCC(=O)N2C[C@@]3(C)C[C@@H]2CC(C)(C)C3)nc2sc(CC)cc2c1=O` the logD was 6.04. `Cc1cccc(-n2c(S[C@@H](C)C(N)=O)nnc2-c2cccc(S(=O)(=O)N(C)C)c2)c1` gave a logD of 3.81. `CN(c1ccccc1)S(=O)(=O)c1ccc(C(=O)N2CCN(c3ccccc3Cl)CC2)cc1` gave a logD of 5.31.
